Laboratory results reported in ChEMBL document CHEMBL1629520, “Synthesis and optimization of antitubercular activities in a series of 4-(aryloxy)phenyl cyclopropyl methanols” (Eur J Med Chem, 2010).

Key:
Assay type in all cases: functional
[1] = test system: Mycobacterium tuberculosis; assay: Antitubercular activity against RMF-resistant Mycobacterium tuberculosis clinical isolate2 after 30 days by agar microdilution method
[2] = test system: Mycobacterium tuberculosis; assay: Antitubercular activity against RMF-resistant Mycobacterium tuberculosis clinical isolate1 after 30 days by agar microdilution method
[3] = test system: Mycobacterium tuberculosis; assay: Antitubercular activity against multi drug-resistant Mycobacterium tuberculosis clinical isolate after 30 days by agar microdilution method
[4] = test system: Mycobacterium tuberculosis; assay: Antitubercular activity against extensively drug-resistant Mycobacterium tuberculosis clinical isolate after 30 days by agar microdilution method

Measured: MIC

OC(c1ccc(OCc2ccc(OCCN3CCCCC3)cc2)cc1)C1CC1 (centres undefined)
12.5 µg/mL: all assays above
